From PMC10272112 (Nature Communications, 2023)

Assays:
Test in all cases: Chemoproteomic competition pulldown assay (co-competed CoREST partner)
Format in all cases: binding
[1] = tested on: RCOR3
Procedure: (§1) To identify proteins directly bound by lipoic acid, we employed a chemoproteomic competition assay. Briefly, (R/S)-LA was immobilized on sepharose beads via an amidation reaction to form an affinity matrix (abbreviated as iL; Fig. 1a). This affinity matrix can be incubated with cell lysate to pull down potential LA or LM target proteins and identify these targets via bottom-up proteomics. In a competition assay, free LA or LM were incubated with lysate at different concentrations before pulling down and quantifying target proteins. […] (Fig. 1b, see “Methods” for details). […] The lysate buffer used in this assay contains 1 mM DTT to mimic the intracellular reductive milieu and to reduce lipoic acid and LM. […] Additional competition assays performed in lung adenocarcinoma cell A549 lysate also identified HDAC1, HDAC2, and HDAC6 as targets (Supplementary Fig. 1b). Amongst the three cell lines tested, HDACs were the only confidently identified targets across the 1500–3000 proteins quantified in these assays. […] We validated the results by analogous pulldown competition assays using two other affinity matrices prepared via the immobilization of either the HDAC inhibitor Quisinostat (iQ) and an analog of the class IIa HDAC inhibitor Bürli’s 31[14] (iC)[12]. We have previously shown that these affinity matrices specifically bind to the active sites of HDACs and have used them for HDACi selectivity profiling. Indeed, binding of (R/S)-LA and (R/S)-LM to HDAC1, HDAC2, HDAC3, HDAC6, and, to a lesser extent, HDAC8 was confirmed in these assays (Supplementary Fig. 1c, d). No binding to class IIa HDACs or the recently discovered common HDAC inhibitor off-target MBLAC2 was observed (Supplementary Fig. 1e)[12]. […] This observation might reflect electrostatic repulsion between the HDAC10 active site gate-keeper glutamic acid residues[15],[16] and the terminal carboxylic acid of LA.
(§2) To assess the degree of protein depletion from lysates by the affinity matrix, a second pulldown (PDPD) with fresh beads was performed using the unbound protein fraction from the vehicle control flow through. The beads were washed (1 × 1 mL of lysis buffer without inhibitors and only 0.4% Igepal, 2 × 2 mL of lysis buffer without inhibitors and only 0.2% Igepal), and captured proteins were denatured with 8 M urea buffer, alkylated with 55 mM chloroacetamide and digested with Trypsin according to standard procedures. The resulting peptides were desalted on a C18 filter plate (Sep-Pak® tC18 µElution Plate, Waters), vacuum dried, and stored at −20 °C until LC–MSMS measurement.
(§3) For the competition assays, relative binding was calculated based on the protein intensity ratio to the DMSO control for every single inhibitor concentration. EC50 values were derived from a four-parameter log-logistic regression with variable slope (constrain: bottom > 0). The obtained EC50 values were multiplied with a protein-dependent correction factor (cf), resulting in the apparent Kd value (Kd^app). The correction factor is determined by calculating the ratio of the protein intensity of two consecutive pulldowns of the vehicle control sample[13]. Targets of the inhibitors were annotated manually according to published procedures[12],[46],[47]. […] Additionally, the number of unique peptides and MSMS counts per condition were taken into account. Positive target binding across several independent experiments performed with different cell lysates further substantiated our confidence for a true positive drug-target binding event.

[2] = tested on: GSE1
Procedure: as §1, §2, §3

[3] = tested on: HMG20A
Procedure: as §1, §2, §3

[4] = tested on: KDM1A
Procedure: as §1, §2, §3

[5] = tested on: RCOR1
Procedure: as §1, §2, §3

[6] = iL, A549 lysate, log10 M -4.52288
[7] = iL, A549 lysate, log10 M -5.52288
[8] = iL, A549 lysate, log10 M -6.52288
[9] = iL, A549 lysate, log10 M -7.52288
[10] = iL, A549 lysate, log10 M -8.52288
[11] = iQ, SW620 lysate, log10 M -3.52288
[12] = iQ, SW620 lysate, log10 M -4.52288
[13] = iQ, SW620 lysate, log10 M -5.52288
[14] = iQ, SW620 lysate, log10 M -6.52288
[15] = iL, SW620 lysate, log10 M -3.52288
[16] = iL, SW620 lysate, log10 M -4.52288
[17] = iL, SW620 lysate, log10 M -5.52288
[18] = iL, SW620 lysate, log10 M -6.52288

O=C(O)CCCCC1CCSS1 (racemic) [(R/S)-LA, (R/S)-lipoic acid] was tested, and the “relative binding vs DMSO” value ([1]; iL, A549 lysate, log10 M -4) was 0, the “relative binding vs DMSO” value [1, 6] was 0 and the “relative binding vs DMSO” value ([1]; iL, A549 lysate, log10 M -5) was 0. The “relative binding vs DMSO” value [1, 7] was 0, the “relative binding vs DMSO” value ([1]; iL, A549 lysate, log10 M -6) was 0.7701 and the “relative binding vs DMSO” value [1, 8] was 1.109. The “relative binding vs DMSO” value [1, 9] was 1.217, the “relative binding vs DMSO” value ([1]; iL, A549 lysate, log10 M -8) was 1.199 and the “relative binding vs DMSO” value [1, 10] was 1.533. The “relative binding vs DMSO” value [1, 11] was 0.06142, the “relative binding vs DMSO” value ([1]; iQ, SW620 lysate, log10 M -4) was 0.2749 and the “relative binding vs DMSO” value [1, 12] was 0.55. For the same compound, the “relative binding vs DMSO” value ([1]; iQ, SW620 lysate, log10 M -5) was 0.4741, the “relative binding vs DMSO” value [1, 13] was 0.7307 and the “relative binding vs DMSO” value ([1]; iQ, SW620 lysate, log10 M -6) was 0.7404. The “relative binding vs DMSO” value [1, 14] was 0.7642, the “relative binding vs DMSO” value ([1]; iQ, SW620 lysate, log10 M -7) was 0.7542 and the “relative binding vs DMSO” value ([2]; iL, A549 lysate, log10 M -4) was 0.002926. For the same compound, the “relative binding vs DMSO” value [2, 6] was 0.03688, the “relative binding vs DMSO” value ([2]; iL, A549 lysate, log10 M -5) was 0.08918 and the “relative binding vs DMSO” value [2, 7] was 0.4136. For the same compound, the “relative binding vs DMSO” value ([2]; iL, A549 lysate, log10 M -6) was 0.8054, the “relative binding vs DMSO” value [2, 8] was 1.293 and the “relative binding vs DMSO” value [2, 9] was 1.282. For the same compound, the “relative binding vs DMSO” value ([2]; iL, A549 lysate, log10 M -8) was 1.353, the “relative binding vs DMSO” value [2, 10] was 1.278 and the “relative binding vs DMSO” value [2, 15] was 0. The “relative binding vs DMSO” value ([2]; iL, SW620 lysate, log10 M -4) was 0, the “relative binding vs DMSO” value [2, 16] was 0 and the “relative binding vs DMSO” value ([2]; iL, SW620 lysate, log10 M -5) was 0.09089. The “relative binding vs DMSO” value [2, 17] was 0.3606, the “relative binding vs DMSO” value ([2]; iL, SW620 lysate, log10 M -6) was 1.287 and the “relative binding vs DMSO” value [2, 18] was 0.7924. The “relative binding vs DMSO” value ([2]; iL, SW620 lysate, log10 M -7) was 1.217, the “relative binding vs DMSO” value [2, 11] was 0.1048 and the “relative binding vs DMSO” value ([2]; iQ, SW620 lysate, log10 M -4) was 0.1152. For the same compound, the “relative binding vs DMSO” value [2, 12] was 0.3197, the “relative binding vs DMSO” value ([2]; iQ, SW620 lysate, log10 M -5) was 0.4493 and the “relative binding vs DMSO” value [2, 13] was 0.5952. The “relative binding vs DMSO” value ([2]; iQ, SW620 lysate, log10 M -6) was 0.7905, the “relative binding vs DMSO” value [2, 14] was 0.8177 and the “relative binding vs DMSO” value ([2]; iQ, SW620 lysate, log10 M -7) was 0.7924. The “relative binding vs DMSO” value ([3]; iL, A549 lysate, log10 M -4) was 0, the “relative binding vs DMSO” value [3, 6] was 0 and the “relative binding vs DMSO” value ([3]; iL, A549 lysate, log10 M -5) was 0. The “relative binding vs DMSO” value [3, 7] was 0.4211, the “relative binding vs DMSO” value ([3]; iL, A549 lysate, log10 M -6) was 0.8299 and the “relative binding vs DMSO” value [3, 8] was 0.9993. The “relative binding vs DMSO” value [3, 9] was 1.185, the “relative binding vs DMSO” value ([3]; iL, A549 lysate, log10 M -8) was 1.321 and the “relative binding vs DMSO” value [3, 10] was 1.259. The “relative binding vs DMSO” value [3, 11] was 0.2638, the “relative binding vs DMSO” value ([3]; iQ, SW620 lysate, log10 M -4) was 0.07541 and the “relative binding vs DMSO” value [3, 12] was 0.5511. For the same compound, the “relative binding vs DMSO” value ([3]; iQ, SW620 lysate, log10 M -5) was 0.4652, the “relative binding vs DMSO” value [3, 13] was 0.8795 and the “relative binding vs DMSO” value ([3]; iQ, SW620 lysate, log10 M -6) was 0.793. For the same compound, the “relative binding vs DMSO” value [3, 14] was 1.133, the “relative binding vs DMSO” value ([3]; iQ, SW620 lysate, log10 M -7) was 0.8444 and the “relative binding vs DMSO” value ([4]; iL, A549 lysate, log10 M -4) was 0.08234. The “relative binding vs DMSO” value [4, 6] was 0.1175, the “relative binding vs DMSO” value ([4]; iL, A549 lysate, log10 M -5) was 0.1963 and the “relative binding vs DMSO” value [4, 7] was 0.3595. The “relative binding vs DMSO” value ([4]; iL, A549 lysate, log10 M -6) was 0.6514, the “relative binding vs DMSO” value [4, 8] was 1.056 and the “relative binding vs DMSO” value [4, 9] was 0.9439. The “relative binding vs DMSO” value ([4]; iL, A549 lysate, log10 M -8) was 1.171, the “relative binding vs DMSO” value [4, 10] was 1.264 and the “relative binding vs DMSO” value [4, 15] was 0. The “relative binding vs DMSO” value ([4]; iL, SW620 lysate, log10 M -4) was 0, the “relative binding vs DMSO” value [4, 16] was 0 and the “relative binding vs DMSO” value ([4]; iL, SW620 lysate, log10 M -5) was 0.08571. The “relative binding vs DMSO” value [4, 17] was 0.9092, the “relative binding vs DMSO” value ([4]; iL, SW620 lysate, log10 M -6) was 1.31 and the “relative binding vs DMSO” value [4, 18] was 1.608. The “relative binding vs DMSO” value ([4]; iL, SW620 lysate, log10 M -7) was 1.68, the “relative binding vs DMSO” value [4, 11] was 0.1418 and the “relative binding vs DMSO” value ([4]; iQ, SW620 lysate, log10 M -4) was 0.1346. The “relative binding vs DMSO” value [4, 12] was 0.3513, the “relative binding vs DMSO” value ([4]; iQ, SW620 lysate, log10 M -5) was 0.5517 and the “relative binding vs DMSO” value [4, 13] was 0.6829. For the same compound, the “relative binding vs DMSO” value ([4]; iQ, SW620 lysate, log10 M -6) was 0.6182, the “relative binding vs DMSO” value [4, 14] was 0.6303 and the “relative binding vs DMSO” value ([4]; iQ, SW620 lysate, log10 M -7) was 0.7048. For the same compound, the “relative binding vs DMSO” value ([5]; iL, A549 lysate, log10 M -4) was 0.04582, the “relative binding vs DMSO” value [5, 6] was 0.0556 and the “relative binding vs DMSO” value ([5]; iL, A549 lysate, log10 M -5) was 0.1265. For the same compound, the “relative binding vs DMSO” value [5, 7] was 0.344, the “relative binding vs DMSO” value ([5]; iL, A549 lysate, log10 M -6) was 0.6862 and the “relative binding vs DMSO” value [5, 8] was 1.238. For the same compound, the “relative binding vs DMSO” value [5, 9] was 0.8815, the “relative binding vs DMSO” value ([5]; iL, A549 lysate, log10 M -8) was 1.065 and the “relative binding vs DMSO” value [5, 10] was 1.673. For the same compound, the “relative binding vs DMSO” value [5, 15] was 0, the “relative binding vs DMSO” value ([5]; iL, SW620 lysate, log10 M -4) was 0 and the “relative binding vs DMSO” value [5, 16] was 0.2767. The “relative binding vs DMSO” value ([5]; iL, SW620 lysate, log10 M -5) was 0.2629, the “relative binding vs DMSO” value [5, 17] was 0.4301 and the “relative binding vs DMSO” value ([5]; iL, SW620 lysate, log10 M -6) was 0.8481. For the same compound, the “relative binding vs DMSO” value [5, 18] was 1.192, the “relative binding vs DMSO” value ([5]; iL, SW620 lysate, log10 M -7) was 0.8783 and the “relative binding vs DMSO” value [5, 11] was 0.1176. For the same compound, the “relative binding vs DMSO” value ([5]; iQ, SW620 lysate, log10 M -4) was 0.1659, the “relative binding vs DMSO” value [5, 12] was 0.5043 and the “relative binding vs DMSO” value ([5]; iQ, SW620 lysate, log10 M -5) was 0.4267. For the same compound, the “relative binding vs DMSO” value [5, 13] was 0.9917, the “relative binding vs DMSO” value ([5]; iQ, SW620 lysate, log10 M -6) was 1.001 and the “relative binding vs DMSO” value [5, 14] was 0.9723. The “relative binding vs DMSO” value ([5]; iQ, SW620 lysate, log10 M -7) was 0.6892.
